Data published in patent US12441775B2, “BCL-W polypeptides and mimetics for treating or preventing chemotherapy-induced peripheral neuropathy and hearing loss” (Dana-Farber Cancer Institute, Inc., priority 2016, dated 2025).

B1: Bclw: Recombinant His-tagged Bclw protein (R&D Systems) introduced by protein transfection (protein, UniProt Q92843 2-193, looked up)
Bcl-2-like protein 2: ATPASAPDTRALVADFVGYKLRQKGYVCGAGPGEGPAADPLHQAMRAAGDEFETRFRRTFSDLAAQLHVTPGSAQQRFTQVSDELFQGGPNWGRLVAFFVFGAALCAESVNKEMEPLVGQVQEWMVAYLETQLADWIHSSGGWAEFTALYGDGALEEARRLREGNWASVRTVLTGAVALGALVTVGAFFASK
modifications: His tag
notes: Recombinant His-tagged Bclw protein (R&D Systems) introduced by protein transfection

Test system: axons of E15 DRG sensory neurons
Assay: Axonal degeneration assay in compartmented chamber cultures (degeneration index)
Format: cell-based, rat
Protocol: Cell culture. Compartmented chamber (Campenot) cultures were prepared as described (see, e.g., Fenstermacher et al., Springer Protocols: Neuromethods, 103:105-124 (2015)), with modifications. Briefly, DRGs from embryonic day 15 (E15) rats of either sex were dissected and trypsinized. DRGs (1.2×10^5 cells) were plated in the center compartment of a Teflon divider (Camp10, Tyler Research; Campenot, 1982) affixed to a p35 culture dish coated with growth factor reduced Matrigel basement membrane (BD Biosciences) 1:45 in DMEM. Cultures were maintained in media consisting of Neurobasal (Invitrogen) with 2% B27 supplement (Invitrogen), 1% penicillin-streptomycin, 1% GlutaMAX (Life Technologies), 0.08% glucose, and 0.3 μM cytosine arabinoside (AraC) at 37° C., 7.5% CO2; BDNF+NGF (PeproTech) were added to the cell body compartment at a concentration of 10 ng/ml and to the axon compartment at a concentration of 100 ng/ml for 2d. On day 3, media was replaced and the AraC was omitted. On day 5, neurotrophins were removed from the cell body compartment and reduced to 1 ng/ml in the axon compartments for 3-5 days. […] For calpain inhibition experiments, 20 μM calpain inhibitor III (VWR) and paclitaxel were added simultaneously to distal axon compartment.
Axonal degeneration assay. Compartmented chamber cultures were fixed at room temperature with 4% PFA diluted 1:2 in media for 10 min, then undiluted 4% PFA for an additional 20 min. Cultures were permeabilized with 0.1% TritonX-100 for 10 min, blocked in 3% BSA and 0.1% Triton X-100 for 1 hour at room temperature, and incubated with mouse anti-Tuj1 (1:400; clone Tuj1; Covance) overnight at 4° C. Cultures were then incubated with goat anti-mouse AlexaFluor (1:1000; Invitrogen) for 1 hour at room temperature and counterstained with DAPI. Images of distal axon tips were obtained using a 40× air objective, and axonal degeneration was quantified as a degeneration index, as previously described (Cosker et al., Neuroscience, 33:5195-5207 (2013)). Apoptosis analysis was carried out on the same cultures by taking images in the cell body compartment and counting total and condensed nuclei in NIH ImageJ software by an observer blind to condition.
Protein and peptide introduction. Recombinant His-tagged Bclw, Bcl2, and BclxL proteins (R&D Systems) or control β-galactosidase protein were introduced into cell bodies or axons of compartmented chamber cultures as described (e.g., Cosker et al., Nature Neuroscience, 19:690-696 (2016)). Briefly, 1 μg/μ1 protein was introduced into cultures using 2 μl Chariot reagent (Active Motif). To confirm expression of His-tagged proteins, cell bodies and axons were lysed in nonionic detergent, and protein lysates were separated as above and blotted with the following antibodies: anti-His (1:1000; Novagen) and anti-pan-actin (1:1000; Cell Signaling Technology). FITC-tagged SAHB peptides (BH4-Bclw, BH4-Bcl2, and BH4-BclxL; stock solutions 1 mM in DMSO) were introduced into cell bodies or axons using 350 ng peptide and 2 μl of Chariot reagent diluted 1:10 in water. Control was no peptide with 2 μl of 1:10 diluted Chariot. To confirm peptide expression, cultures were processed for axonal degeneration assay as above, and FITC immunofluorescence was examined with a 40× air objective. Paclitaxel was added to cultures 1 hour after protein or peptide transfection.

[1] = His-tagged recombinant protein transfected into axons
[2] = protein introduced into cell bodies instead of axons

Molecule | effect on paclitaxel-induced axon degeneration (20 μM to axons, added with paclitaxel) | effect on paclitaxel-induced axon degeneration [1] | effect on paclitaxel-induced axon degeneration [2]
calpain inhibitor III | prevented paclitaxel-induced degeneration |  | 
BclxL: Recombinant His-tagged BclxL protein (R&D Systems) introduced by protein transfection |  | neither BclxL nor Bcl2 prevented degeneration | failed to inhibit paclitaxel-induced degeneration
Bcl2: Recombinant His-tagged Bcl2 protein (R&D Systems) introduced by protein transfection |  | neither BclxL nor Bcl2 prevented degeneration | failed to inhibit paclitaxel-induced degeneration
B1 |  | completely prevented paclitaxel-induced axon degeneration | failed to inhibit paclitaxel-induced degeneration
